Test results taken from US20100291564A1, “Methods for Detection of Micro-Organisms” (MICROSEN MEDTECH LIMITED, priority 2007, published 2010).

Legend:
Staph. aureus = assay: Sensitivity of Staph. aureus cells to antibiotic, NAD-dependent ligase detection (LiMA-2, Taq-Man real time PCR); assay type: cell-based, Staphylococcus aureus; settings: 10^4 cells added to culture medium, after 4 hours in the presence of antibiotic
Protocol: FIG. 5. Sensitivity of Staph. aureus cells to antibiotic. […]
Take 1 ml fresh Staph. aureus culture (10^6 cells/μl), spin 8000 rpm 5 min, resuspend pellet in 1 ml deionised water Dilute in a series of 10 fold dilutions down to 10^2 cells/μl
After ligation step above add 2 μl of following nuclease mix to each tube:
Add 2 μl to PCR mastermix, cycles were:
The detection limit in this experiment was estimated to be between 10 and 100 cells.

E. coli = assay: Drug susceptibility testing by NAD-dependent ligase mediated PCR assay; assay type: cell-based, Escherichia coli; settings: for Cycle at which PCR was positive: plus gentamicin 50 μg/ml
Source text: The PCR signal generated is related to the number of ligated molecules of the DNA substrate which in turn is related to the number of ligase molecules present. In turn, the number of molecules of ligase present is dependent on the viability of the bacterium. Upon culture of a given bacterium, if the bacteria are healthy, growing and increasing in number there will be progressively more ligase present which will generate more ligation and more PCR signal. If the bacteria are unhealthy and non-viable or dying there will be no increase in ligase on culture and the number of ligase molecules might even be expected to decrease which will be reflected in the amount of ligation and PCR signal generated. In this example we have tested the susceptibility of the organism to an antibiotic. By culturing in the presence and absence of antibiotic we can compare the signal generated from the bacterial ligase at different time points. Additionally, the experiment can be performed with and without the addition of the NAD+ cofactor. In the presence of added cofactor the ligase can cycle through many ligation steps. In the absence of added cofactor the ligase must depend on endogenous bacterial NAD+ for ligation. These two conditions, therefore are two different measures of the health of the bacterial cell
1. 10 ml of media (LB broth) containing 50 μg/ml gentamicin was inoculated with […] E. coli bacteria/ml and incubated for 3 hours. At 30 min time points 1 ml of the culture was removed and placed on ice until completion of the time course.
2. The bacteria were then pelleted by centrifugation at 6,000×g for 5 min and the supernatant removed.
3. The protocol from this stage was identical to steps 3 to 8 in example 1 except that the ligase reaction was performed with and without added NAD+.

Row | Compound | fall of NAD-dependent ligase content (Staph. aureus) | Cycle at which PCR was positive (E. coli; With added NAD+, time 0 min) | Cycle at which PCR was positive (E. coli; With added NAD+, time 30 min) | Cycle at which PCR was positive (E. coli; With added NAD+, time 60 min) | Cycle at which PCR was positive (E. coli; With added NAD+, time 90 min) | Cycle at which PCR was positive (E. coli; With added NAD+, time 120 min) | Cycle at which PCR was positive (E. coli; With added NAD+, time 150 min) | Cycle at which PCR was positive (E. coli; With added NAD+, time 180 min) | Cycle at which PCR was positive (E. coli; Without added NAD+, time 0 min) | Cycle at which PCR was positive (E. coli; Without added NAD+, time 30 min) | Cycle at which PCR was positive (E. coli; Without added NAD+, time 60 min) | Cycle at which PCR was positive (E. coli; Without added NAD+, time 90 min) | Cycle at which PCR was positive (E. coli; Without added NAD+, time 120 min) | Cycle at which PCR was positive (E. coli; Without added NAD+, time 150 min) | Cycle at which PCR was positive (E. coli; Without added NAD+, time 180 min) | signal from the bacterial ligase (E. coli; in the presence of gentamicin 50 μg/ml, incubation up to 3 hours)
1 | Cc1onc(-c2ccccc2)c1C(=O)N[C@@H]1C(=O)N2[C@@H]1SC(C)(C)[C@@H]2C(=O)O [oxacillin] | > 2×10^3 fold |  |  |  |  |  |  |  |  |  |  |  |  |  |  | 
2 | gentamicin |  | 26.2 | 25.1 | 25.7 | 26.2 | 27.2 | 26.8 | 26.3 | 29.5 | 29.4 | 31.6 | 30.1 | 30.3 | 29.4 | 30.1 | does not increase with incubation
